Experimental data as given in patent US9695155B2, “Herbicidal substituted pyrimidinyloxy benzene compounds” (E. I. DU PONT DE NEMOURS AND COMPANY, priority 2013, dated 2017).

Assays:
[1] = test system: giant foxtail; assay: Test A preemergence; assay type: in vivo, Setaria faberii
Method in brief: (§1)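 Visual 0–100 rating (100 = complete control) taken about 10 d post-treatment relative to untreated checks. Preemergence: directed soil spray on sown loam/sand pots. Postemergence: seedlings 2–10 cm, 1–2 leaf. Non-phytotoxic solvent formulation with surfactant.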

[2] = test system: corn; assay: Test A preemergence; assay type: in vivo, Zea mays
Method in brief: as §1

[3] = test system: rice; assay: Test B flooded paddy test; assay type: in vivo, Oryza sativa; settings: Flood, 250 g ai/ha; 0 to 100 scale where 0 is no effect and 100 is complete control
Method in brief: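 2-leaf stage plants; pots flooded to 3 cm, compound added to paddy water, depth maintained. Greenhouse 13–15 d. Visual rating vs untreated controls, 0 (no effect) to 100 (complete control); dash = no result.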

[4] = test system: yellow nutsedge; assay: Test C preemergence; assay type: in vivo, Cyperus esculentus; settings: for Nutsedge, Yellow plant response rating: preemergence, scale 0 (no effect) to 100 (complete control)
Method in brief: (§2)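 Visual injury score versus untreated controls, 0 = no effect, 100 = complete control, taken 13 to 15 days after treatment in the greenhouse. Pre-emergence pots held loam/sand; post-emergence plants grew in sphagnum peat/vermiculite mix and were sprayed at the 1- to 4-leaf stage.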

[5] = test system: pigweed; assay: Test C preemergence; assay type: in vivo, Amaranthus retroflexus; settings: for Pigweed plant response rating: preemergence, scale 0 (no effect) to 100 (complete control)
Method in brief: as §2

[6] = test system: soybean; assay: Test C preemergence; assay type: in vivo, Glycine max; settings: for Soybean plant response rating: preemergence, scale 0 (no effect) to 100 (complete control)
Method in brief: as §2

[7] = test system: velvetleaf; assay: Test C preemergence; assay type: in vivo, Abutilon theophrasti; settings: for Velvetleaf plant response rating: preemergence, scale 0 (no effect) to 100 (complete control)
Method in brief: as §2

[8] = test system: blackgrass; assay: Test C postemergence; assay type: in vivo, Alopecurus myosuroides; settings: for Plant response rating (0 to 100), Blackgrass: postemergence; for Plant response rating, Blackgrass: Postemergence, scale 0 to 100 (0 no effect, 100 complete control)
Method in brief: as §2

[9] = test system: Italian ryegrass; assay: Test C postemergence; assay type: in vivo, Lolium multiflorum; settings: for Plant response rating (0 to 100), Ryegrass, Italian: postemergence; for Plant response rating, Ryegrass, Italian: Postemergence, scale 0 to 100 (0 no effect, 100 complete control)
Method in brief: as §2

[10] = test system: wheat, winter; assay: Test C postemergence; assay type: in vivo, Triticum aestivum; settings: for Plant response rating (0 to 100), Wheat: postemergence; for Plant response rating, Wheat: Postemergence, scale 0 to 100 (0 no effect, 100 complete control)
Method in brief: as §2

[11] = test system: lambsquarters; assay: Test C postemergence; assay type: in vivo, Chenopodium album; settings: for Plant response rating (0 to 100), Lambsquarters: postemergence; for Plant response rating, Lambsquarters: Postemergence, scale 0 to 100 (0 no effect, 100 complete control)
Method in brief: as §2

[12] = test system: yellow nutsedge; assay: Test C postemergence; assay type: in vivo, Cyperus esculentus; settings: for Plant response rating (0 to 100), Nutsedge, Yellow: postemergence; for Plant response rating, Nutsedge, Yellow: Postemergence, scale 0 to 100 (0 no effect, 100 complete control)
Method in brief: as §2

[13] = test system: pigweed; assay: Test C postemergence; assay type: in vivo, Amaranthus retroflexus; settings: for Plant response rating (0 to 100), Pigweed: postemergence; for Plant response rating, Pigweed: Postemergence, scale 0 to 100 (0 no effect, 100 complete control)
Method in brief: as §2

[14] = test system: ragweed; assay: Test C postemergence; assay type: in vivo, Ambrosia elatior; settings: for Plant response rating (0 to 100), Ragweed: postemergence; for Plant response rating, Ragweed: Postemergence, scale 0 to 100 (0 no effect, 100 complete control)
Method in brief: as §2

[15] = test system: wild oat; assay: Test C postemergence; assay type: in vivo, Avena fatua; settings: for Plant response rating (0 to 100), Oat, Wild: postemergence; for Plant response rating, Oat, Wild: Postemergence, scale 0 to 100 (0 no effect, 100 complete control)
Method in brief: as §2

[16] = 125 g ai/ha, 0 to 100 scale where 0 is no effect and 100 is complete control
[17] = 500 g ai/ha, 0 to 100 scale, 0 no effect, 100 complete control, approx. 10 days
[18] = Preemergence, 31 g ai/ha, scale 0 to 100, 0 no effect, 100 complete control

FC(F)(F)c1cnn(-c2ccccc2Oc2ncc(Cl)cn2)c1 [Compound 16]
Foxtail, Giant plant response rating [1, 16]: 100 | Foxtail, Giant plant response rating [1, 17]: 100 | Corn plant response rating [2, 16]: 10 | Corn plant response rating [2, 17]: 30 | Plant response rating, Rice [3]: 40 | Nutsedge, Yellow plant response rating ([4]; 62 g ai/ha): 25 | Nutsedge, Yellow plant response rating ([4]; 125 g ai/ha): 65 | Nutsedge, Yellow plant response rating ([4]; 250 g ai/ha): 65 | Plant response rating, Nutsedge, Yellow [4, 18]: 15 | Pigweed plant response rating ([5]; 62 g ai/ha): 100 | Pigweed plant response rating ([5]; 125 g ai/ha): 100 | Pigweed plant response rating ([5]; 250 g ai/ha): 100 | Plant response rating, Pigweed [5, 18]: 100 | Soybean plant response rating ([6]; 62 g ai/ha): 90 | Soybean plant response rating ([6]; 125 g ai/ha): 90 | Soybean plant response rating ([6]; 250 g ai/ha): 90 | Plant response rating, Soybean [6, 18]: 75 | Velvetleaf plant response rating ([7]; 62 g ai/ha): 100 | Velvetleaf plant response rating ([7]; 125 g ai/ha): 100 | Velvetleaf plant response rating ([7]; 250 g ai/ha): 100 | Plant response rating, Velvetleaf [7, 18]: 98 | Plant response rating (0 to 100), Blackgrass ([8]; 125 g ai/ha): 30 | Plant response rating (0 to 100), Blackgrass ([8]; 250 g ai/ha): 70 | Plant response rating, Blackgrass ([8]; 31 g ai/ha, 13 to 15 days): 5 | Plant response rating, Blackgrass ([8]; 62 g ai/ha): 30 | Plant response rating (0 to 100), Ryegrass, Italian ([9]; 125 g ai/ha): 20 | Plant response rating (0 to 100), Ryegrass, Italian ([9]; 250 g ai/ha): 20 | Plant response rating, Ryegrass, Italian ([9]; 31 g ai/ha, 13 to 15 days): 10 | Plant response rating, Ryegrass, Italian ([9]; 62 g ai/ha): 15 | Plant response rating (0 to 100), Wheat ([10]; 125 g ai/ha): 35 | Plant response rating (0 to 100), Wheat ([10]; 250 g ai/ha): 35 | Plant response rating, Wheat ([10]; 31 g ai/ha, 13 to 15 days): 5 | Plant response rating, Wheat ([10]; 62 g ai/ha): 15 | Plant response rating (0 to 100), Lambsquarters ([11]; 125 g ai/ha): 100 | Plant response rating (0 to 100), Lambsquarters ([11]; 250 g ai/ha): 100 | Plant response rating, Lambsquarters ([11]; 31 g ai/ha, 13 to 15 days): 75 | Plant response rating, Lambsquarters ([11]; 62 g ai/ha): 100 | Plant response rating (0 to 100), Nutsedge, Yellow ([12]; 125 g ai/ha): 5 | Plant response rating (0 to 100), Nutsedge, Yellow ([12]; 250 g ai/ha): 20 | Plant response rating, Nutsedge, Yellow ([12]; 31 g ai/ha, 13 to 15 days): 5 | Plant response rating, Nutsedge, Yellow ([12]; 62 g ai/ha): 5 | Plant response rating (0 to 100), Pigweed ([13]; 125 g ai/ha): 100 | Plant response rating (0 to 100), Pigweed ([13]; 250 g ai/ha): 100 | Plant response rating, Pigweed ([13]; 31 g ai/ha, 13 to 15 days): 80 | Plant response rating, Pigweed ([13]; 62 g ai/ha): 98 | Plant response rating (0 to 100), Ragweed ([14]; 125 g ai/ha): 40 | Plant response rating (0 to 100), Ragweed ([14]; 250 g ai/ha): 90 | Plant response rating, Ragweed ([14]; 31 g ai/ha, 13 to 15 days): 15 | Plant response rating, Ragweed ([14]; 62 g ai/ha): 30 | Plant response rating (0 to 100), Oat, Wild ([15]; 125 g ai/ha): 35 | Plant response rating (0 to 100), Oat, Wild ([15]; 250 g ai/ha): 45 | Plant response rating, Oat, Wild ([15]; 31 g ai/ha, 13 to 15 days): 25 | Plant response rating, Oat, Wild ([15]; 62 g ai/ha): 35
